# Assay results taken from patent US20120238549A1, “Nuclear Hormone Receptor Modulators” (ABBOTT LABORATORIES, priority 2011, published 2012).
# Target: T1, Glucocorticoid Receptor (GR) (Homo sapiens, UniProt P04150)
# T1 construct: purchased Invitrogen P2893
# T1 sequence (P04150 1-777): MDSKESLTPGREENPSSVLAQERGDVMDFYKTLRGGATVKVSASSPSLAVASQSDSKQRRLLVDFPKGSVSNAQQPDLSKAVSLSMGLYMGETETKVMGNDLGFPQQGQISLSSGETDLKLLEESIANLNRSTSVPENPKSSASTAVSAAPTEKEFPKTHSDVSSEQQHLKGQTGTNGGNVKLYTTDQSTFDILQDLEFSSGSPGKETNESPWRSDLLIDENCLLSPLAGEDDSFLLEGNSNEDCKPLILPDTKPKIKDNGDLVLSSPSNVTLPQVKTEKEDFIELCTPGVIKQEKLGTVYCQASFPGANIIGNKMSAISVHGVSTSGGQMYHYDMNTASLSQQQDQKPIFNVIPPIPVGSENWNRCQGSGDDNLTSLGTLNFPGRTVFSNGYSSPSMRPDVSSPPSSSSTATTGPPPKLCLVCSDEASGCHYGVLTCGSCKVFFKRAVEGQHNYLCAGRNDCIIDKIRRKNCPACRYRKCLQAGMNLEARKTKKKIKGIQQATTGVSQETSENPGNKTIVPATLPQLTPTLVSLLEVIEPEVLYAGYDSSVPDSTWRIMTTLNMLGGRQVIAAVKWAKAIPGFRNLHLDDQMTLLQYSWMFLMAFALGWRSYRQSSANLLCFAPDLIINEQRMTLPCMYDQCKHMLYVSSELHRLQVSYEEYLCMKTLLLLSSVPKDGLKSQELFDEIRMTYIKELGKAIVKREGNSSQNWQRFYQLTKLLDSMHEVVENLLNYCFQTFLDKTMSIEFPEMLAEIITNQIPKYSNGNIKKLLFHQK
# Test: GR Florescence Polarization Assay (PolarScreen Glucocorticoid Receptor Competitor Assay, Red)
# Details: Fluorescense polarization binding ranges; competition with fluorescent glucocorticoid, incubated overnight at 4° C.
# Protocol: GR Florescence Polarization Assay Florescence polarization assays were carried out using the PolarScreen™ Glucocorticoid Receptor Competitor Assay, Red from Invitrogen (P2893). The assay buffer was prepared according to the manufacturer's protocol and used to dilute the fluorescent glucocorticoid and GR. Compounds were prepared and serial diluted 1:4 in DMSO. Compound, fluorescent glucocorticoid and GR were added in a final volume of 20 μL and incubated overnight at 4° C. Fluorescent polarization was measured on the Perkinelmer Envision®.
row,Structure (SMILES),IC50
1,"CC[C@@]12C[C@@H](O)[C@](O)(c3ccccc3)C[C@@H]1CCOc1cc(C(=O)Nc3cccnc3C)ccc12 (racemic) [Example 135, (7aS,9R,10R,11aR)-11a-Ethyl-9,10-dihydroxy-N-(2-methylpyridin-3-yl)-9-phenyl-6,7,7a,8,9,10,11,11a-octahydrodibenzo[b,d]oxepine-3-carboxamide; compound with (7aR,9S,10S,11aS)-11a-ethyl-9,10-dihydroxy-N-(2-methylpyridin-3-yl)-9-phenyl-6,7,7a,8,9,10,11,11a-octahydrodibenzo[b,d]oxepine-3-carboxamide]",100 to 1000 nM
2,"CCC[C@@]1(O)CC[C@@]2(CC)c3ccc(C(=O)Nc4cccnc4C)cc3COC[C@H]2C1 (racemic) [Example 136, (7aS,9R,11aR)-11a-Ethyl-9-propyl-9-hydroxy-N-(2-methylpyridin-3-yl)-5,7,7a,8,9,10,11,11a-octahydrodibenzo[c,e]oxepine-3-carboxamide; compound with (7aR,9S,11aS)-11a-ethyl-9-propyl-9-hydroxy-N-(2-methylpyridin-3-yl)-5,7,7a,8,9,10,11,11a-octahydrodibenzo[c,e]oxepine-3-carboxamide]",< 100 nM
3,"CC[C@@]1(O)CC[C@@]2(Cc3ccccc3)c3cc(C(=O)Nc4cccnc4C)cn3CCC[C@H]2C1 (racemic) [Example 144, (7aS,9R,11aS)-11a-Benzyl-9-ethyl-9-hydroxy-N-(2-methylpyridin-3-yl)-6,7,7a,8,9,10,11,11a-octahydro-5H-benzo[c]pyrrolo[1,2-a]azepine-2-carboxamide; compound with (7aR,9S,11aR)-11a-benzyl-9-ethyl-9-hydroxy-N-(2-methylpyridin-3-yl)-6,7,7a,8,9,10,11,11a-octahydro-5H-benzo[c]pyrrolo[1,2-a]azepine-2-carboxamide]",1000 to 10000 nM
4,"CCC[C@@]1(O)CC[C@@]2(CC)c3ccc(C(=O)Nc4ccccc4N)cc3CCC[C@H]2C1 (racemic) [Example 145, (7aS,9R,11aR)-11a-Ethyl-9-hydroxy-9-propyl-6,7,7a,8,9,10,11,11a-octahydro-5H-dibenzo[a,c]cycloheptene-3-carboxylic acid (2-amino-phenyl)-amide; compound with (7aR,9S,11aS)-11a-ethyl-9-hydroxy-9-propyl-6,7,7a,8,9,10,11,11a-octahydro-5H-dibenzo[a,c]cycloheptene-3-carboxylic acid (2-amino-phenyl)-amide]",< 100 nM
5,"CCC[C@@]1(O)CC[C@@]2(CC)c3ccc(-c4nc5ccccc5[nH]4)cc3CCC[C@H]2C1 (racemic) [Example 146, (3R,4aS,11bR)-9-(1H-Benzoimidazol-2-yl)-11b-ethyl-3-propyl-2,3,4,4a,5,6,7,11b-octahydro-1H-dibenzo[a,c]cyclohepten-3-ol; compound with (3S,4aR,11bS)-9-(1H-benzoimidazol-2-yl)-11b-ethyl-3-propyl-2,3,4,4a,5,6,7,11b-octahydro-1H-dibenzo[a,c]cyclohepten-3-ol]",100 to 1000 nM
6,"CCC[C@@]1(O)CC[C@@]2(CC)c3ccc(C(=O)Nc4cccnc4N)cc3CCC[C@H]2C1 (racemic) [Example 149, (7aS,9R,11aR)-11a-Ethyl-9-hydroxy-9-propyl-6,7,7a,8,9,10,11,11a-octahydro-5H-dibenzo[a,c]cycloheptene-3-carboxylic acid (2-amino-pyridin-3-yl)-amide; compound with (7aR,9S,11aS)-11a-ethyl-9-hydroxy-9-propyl-6,7,7a,8,9,10,11,11a-octahydro-5H-dibenzo[a,c]cycloheptene-3-carboxylic acid(2-amino-pyridin-3-yl)-amide]",< 100 nM
7,"CCC[C@@]1(O)CC[C@@]2(CC3CC3)c3ccc(C(=O)Nc4cccnc4C)cc3CCC[C@H]2C1 (racemic) [Example 150, (7aR,9R,11aS)-11a-Cyclopropylmethyl-9-hydroxy-9-propyl-6,7,7a,8,9,10,11,11a-octahydro-5H-dibenzo[a,c]cycloheptene-3-carboxylic acid (2-methyl-pyridin-3-yl)-amide; compound with (7aS,9S,11aR)-11a-cyclopropylmethyl-9-hydroxy-9-propyl-6,7,7a,8,9,10,11,11a-octahydro-5H-dibenzo[a,c]cycloheptene-3-carboxylic acid (2-methyl-pyridin-3-yl)-amide]",< 100 nM
8,"CC[C@@]1(O)CC[C@@]2(Cc3ccccc3)c3ccc(C(=O)Nc4cccnc4C)cc3CCC[C@H]2C1 (single isomer, unassigned) [Example 14]",< 100 nM
9,"CC[C@]1(O)CC[C@]2(Cc3ccccc3)c3ccc(C(=O)Nc4cccnc4C)cc3CCC[C@@H]2C1 (single isomer, unassigned) [Example 15]",100 to 1000 nM
10,"CC[C@@]1(O)CC[C@@]2(Cc3ccccc3)c3ccc(C(=O)Nc4cccnc4C)cc3C(=O)CC[C@H]2C1 (single isomer, unassigned) [Example 24]",< 100 nM
11,"CC[C@]1(O)CC[C@]2(Cc3ccccc3)c3ccc(C(=O)Nc4cccnc4C)cc3C(=O)CC[C@@H]2C1 (single isomer, unassigned) [Example 25]",1000 to 10000 nM
12,"CCC[C@]1(O)CC[C@]2(CC)c3ccc(C(=O)Nc4cccnc4C)cc3CCC[C@@H]2C1 (single isomer, unassigned) [Example 44]",100 to 1000 nM
13,"CCC[C@@]1(O)CC[C@@]2(CC)c3ccc(C(=O)Nc4cccnc4C)cc3CCC[C@H]2C1 (single isomer, unassigned) [Example 45]",< 100 nM
14,"CC[C@]12CC[C@](C)(O)C[C@H]1CCCc1cc(C(=O)Nc3cccnc3C)ccc12 (single isomer, unassigned) [Example 59]",1000 to 10000 nM
15,"CC[C@@]12CC[C@@](C)(O)C[C@@H]1CCCc1cc(C(=O)Nc3cccnc3C)ccc12 (single isomer, unassigned) [Example 60]",< 100 nM
16,"CCC[C@@]1(O)CC[C@@]2(CC)c3ccc(C(=O)Nc4cccnc4C)cc3C(=O)CC[C@H]2C1 (single isomer, unassigned) [Example 61]",100 to 1000 nM
17,"CCC[C@]1(O)CC[C@]2(CC)c3ccc(C(=O)Nc4cccnc4C)cc3C(=O)CC[C@@H]2C1 (single isomer, unassigned) [Example 62]",< 100 nM
18,"Cc1ncccc1NC(=O)c1ccc2c(c1)CCC[C@@H]1C[C@](C)(O)CC[C@@]21Cc1ccccc1 (single isomer, unassigned) [Example 90]",< 100 nM
19,"CCC[C@]1(O)CC[C@]2(CC)c3ccc(C(=O)Nc4cccnc4C)cc3OCC[C@@H]2C1 (single isomer, unassigned) [Example 120]",100 to 1000 nM
20,"CCC[C@@]1(O)CC[C@@]2(CC)c3ccc(C(=O)Nc4cccnc4C)cc3OCC[C@H]2C1 (single isomer, unassigned) [Example 121]",< 100 nM
21,"CC[C@@]12CC[C@](O)(c3ccccc3)C[C@@H]1CCCc1cc(C(=O)Nc3cccnc3C)ccc12 (single isomer, unassigned) [Example 122]",< 100 nM
22,"CC[C@]12CC[C@@](O)(c3ccccc3)C[C@H]1CCCc1cc(C(=O)Nc3cccnc3C)ccc12 (single isomer, unassigned) [Example 123]",100 to 1000 nM
23,"CC[C@@]12C[C@@H](O)[C@](O)(c3ccccc3)C[C@@H]1CCCc1cc(C(=O)Nc3cccnc3C)ccc12 (single isomer, unassigned) [Example 124]",1000 to 10000 nM
24,"CC[C@]12C[C@H](O)[C@@](O)(c3ccccc3)C[C@H]1CCCc1cc(C(=O)Nc3cccnc3C)ccc12 (single isomer, unassigned) [Example 125]",< 100 nM
25,"CCC[C@@]1(O)CC[C@@]2(CC)c3ccc(C(=O)Nc4cccnc4C)cc3C=CC[C@H]2C1 (single isomer, unassigned) [Example 129]",100 to 1000 nM
26,"CCC[C@]1(O)CC[C@]2(CC)c3ccc(C(=O)Nc4cccnc4C)cc3C=CC[C@@H]2C1 (single isomer, unassigned) [Example 130]",< 100 nM
27,"CCC[C@]1(O)CC[C@]2(CC)c3ccc(C(=O)Nc4cccnc4C)cc3COC[C@@H]2C1 (single isomer, unassigned) [Example 137]",1000 to 10000 nM
28,"CCC[C@@]1(O)CC[C@@]2(CC)c3ccc(C(=O)Nc4cccnc4C)cc3COC[C@H]2C1 (single isomer, unassigned) [Example 138]",< 100 nM
29,"CCC[C@@]1(O)CC[C@@]2(CC)c3ccc(-c4nc5ccccc5[nH]4)cc3CCC[C@H]2C1 (single isomer, unassigned) [Example 147]",1000 to 10000 nM
30,"CCC[C@]1(O)CC[C@]2(CC)c3ccc(-c4nc5ccccc5[nH]4)cc3CCC[C@@H]2C1 (single isomer, unassigned) [Example 148]",1000 to 10000 nM
